Values quoted from earlier work in US20230094837A1, “Biodegradable and Multifunctional Neural Block Devices” (The Penn State Research Foundation, priority 2020, published 2023).

System: femur mineral density
Conditions: rats, oral administration

OC[C@@H](O)[C@H](O)[C@@H](O)CO [xylitol]
effect on femur mineral density: increased femur mineral density
